According to PubChem BioAssay AID1845202 (Molecular Pharmacology Branch, DTP, NCI, 2023):

Tested on: DMS 114 tumor spheroids, viability % test/control
Assay: Anticancer human tumor DMS 114 cell line growth inhibition;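 also: spheroids exposed to compounds for 7 days before read-out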;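 as to viability, T/C: luminescence used as a proxy for viable cells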
Conditions: spheroids with HUVEC and MSC; for IC50: curve of first compound; for viability, T/C: stronger effect = lower value
From the text: Multicellular complex tumor spheroid response to DNA repair inhibitors in combination with DNA-damaging drugs
This study explores the anticancer activities of DNA-damaging drugs and inhibitors of DNA damage repair, both as single agents and in combinations. Complex tumor spheroids comprised of malignant cells, endothelial cells and mesenchymal stem cells served as an in vitro model for human solid tumors. This model system incorporates physiologically relevant features and patient-derived or established malignant cell lines with clinically relevant genetic alterations from many tumor types. Twenty-six patient-derived or established malignant cell lines were evaluated representing sarcoma, melanoma, small cell lung cancer (SCLC), non-small cell lung cancer (NSCLC), as well as bladder, ovarian and pancreatic cancers. The concentration ranges selected for each drug and investigational agent were based upon clinically achievable concentrations if the clinical Cmax of the agent was known.
Compounds. The drugs and compounds olaparib (NSC753686), talazoparib (NSC767125), berzosertib (NSC777718), elimusertib (NSC800525), nedisertib (NSC802822), VX-984 (NSC792969), AZD-1390 (NSC803789), temozolomide (NSC362856), topotecan (NSC609699), trabectedin (NSC813783), staurosporine (NSC755774), and gemcitabine (NSC613327) were obtained from the National Cancer Institute (NCI) Developmental Therapeutics Program Chemical Repository. The FDA-approved anticancer drug set is available from the Developmental Therapeutics Program at https://dtp.cancer.gov/organization/dscb/obtaining/available_plates.htm. […] The stock solutions were prepared in dimethyl sulfoxide (DMSO, Sigma-Aldrich, St. Louis, MO, cat. D2650) at 400-fold the tested concentration and stored at -70 degrees C. Prior to their use, the stock solutions were diluted in fresh medium and the final DMSO concentration in the assay was 0.25% (v/v). All drugs and investigational agents were tested over a range starting from a high concentration at or near the clinical Cmax and decreasing in half-log increments. If the clinical Cmax for an agent had not been determined, the highest concentration tested was 10 microM.
Cell Lines. The patient-derived cancer cell (PDC) lines: 156681-154-R-J1-PDC, 283228-195-R-J1-PDC, 287954-098-R-J1-PDC, 292921-168-R-J2-PDC, 349418-098-R-PDC, 425362-245-T-J1-PDC, 556581-035-R-J1-PDC, and BL0293-F563-PDC were received from the NCI Patient-Derived Models Repository (PDMR, https://pdmr.cancer.gov). The established cell lines HS-SY-2 (RRID:CVCL_8719), MPNST, and SYO-1 (RRID:CVCL_7146) were obtained from the Sloan Kettering Institute. The alveolar soft parts sarcoma cell line ASPS-1 (RRID:CVCL_S738) was established at the NCI and grown from internal seed stocks. The following established cell lines were purchased from the American Type Culture Collection (ATCC, Manassas, VA): G-401 (ATCC, cat. CRL-1441, RRID:CVCL_0270), SW982 (ATCC, cat. HTB-93, RRID:CVCL_1734), VA-ES-BJ (ATCC, cat. CRL-2138, RRID:CVCL_1785), NCI-H719 (ATCC, cat. CRL-5837, RRID:CVCL_1582), NCI-H196 (ATCC, cat. CRL-5823, RRID:CVCL_1509), NCI-H841 (ATCC, cat. CRL-5845, RRID:CVCL_1595), NCI-H1618 (ATCC, cat. CRL-5879, RRID:CVCL_1480), NCI-H1876 (ATCC, cat. CRL-5902, RRID:CVCL_1503), DMS 114 (ATCC, cat. CRL-2066; RRID:CVCL_1174), NCI-H211 (ATCC, cat. CRL-5824; RRID:CVCL_1529), and SW 1271 (ATCC, cat. CRL-2177, RRID:CVCL_1716). The small cell lung cancer cell line COR-L88 was purchased from Sigma-Aldrich (cat. 92031917-1VL, RRID:CVCL_1141). The non-small cell lung cancer cell lines NCI-H226 (RRID:CVCL_1544) and NCI-H322M (RRID:CVCL_1557) were established at the NCI and grown from internal seed stocks. Pooled donor human umbilical vein endothelial cells (HUVEC, Lonza, cat. CC-2519) and human mesenchymal stem cells (hMSC, Lonza, cat. PT-2501) were purchased from Lonza (Walkersville, MD).
Cell Culture. All cells were maintained in an incubator at 37 degrees C and 5% CO2 with 95% humidity. […]

## COc1cc(C)[nH]c(=O)c1CN1CCc2c(Cl)cc(C(OC)C3COC3)c(Cl)c2C1=O (stereo not given) + Cn1nnc2c(C(N)=O)ncn2c1=O
Second compound 1 µM
  IC50: > 10 µM
Second compound 3.16 µM
  IC50: > 10 µM
Second compound 10 µM
  IC50: > 10 µM
Second compound 31.6 µM
  IC50: > 10 µM
Second compound 100 µM
  IC50: > 10 µM
Second compound 1 µM, first compound 0.0316 µM
  viability, T/C: 103%
Second compound 1 µM, first compound 0.1 µM
  viability, T/C: 93.3%
Second compound 1 µM, first compound 0.316 µM
  viability, T/C: 82.7%
Second compound 1 µM, first compound 1 µM
  viability, T/C: 78.4%
Second compound 1 µM, first compound 3.16 µM
  viability, T/C: 73%
Second compound 1 µM, first compound 10 µM
  viability, T/C: 71%
Second compound 3.16 µM, first compound 0.0316 µM
  viability, T/C: 109%
Second compound 3.16 µM, first compound 0.1 µM
  viability, T/C: 97.1%
Second compound 3.16 µM, first compound 0.316 µM
  viability, T/C: 91%
Second compound 3.16 µM, first compound 1 µM
  viability, T/C: 82.3%
Second compound 3.16 µM, first compound 3.16 µM
  viability, T/C: 76.5%
Second compound 3.16 µM, first compound 10 µM
  viability, T/C: 71.7%
Second compound 10 µM, first compound 0.0316 µM
  viability, T/C: 115%
Second compound 10 µM, first compound 0.1 µM
  viability, T/C: 99.5%
Second compound 10 µM, first compound 0.316 µM
  viability, T/C: 93.1%
Second compound 10 µM, first compound 1 µM
  viability, T/C: 82%
Second compound 10 µM, first compound 3.16 µM
  viability, T/C: 80.5%
Second compound 10 µM, first compound 10 µM
  viability, T/C: 70.1%
Second compound 31.6 µM, first compound 0.0316 µM
  viability, T/C: 102%
Second compound 31.6 µM, first compound 0.1 µM
  viability, T/C: 103%
Second compound 31.6 µM, first compound 0.316 µM
  viability, T/C: 86.5%
Second compound 31.6 µM, first compound 1 µM
  viability, T/C: 84.2%
Second compound 31.6 µM, first compound 3.16 µM
  viability, T/C: 70.1%
Second compound 31.6 µM, first compound 10 µM
  viability, T/C: 67.5%
Second compound 100 µM, first compound 0.0316 µM
  viability, T/C: 90.7%
Second compound 100 µM, first compound 0.1 µM
  viability, T/C: 95.6%
Second compound 100 µM, first compound 0.316 µM
  viability, T/C: 73.3%
Second compound 100 µM, first compound 1 µM
  viability, T/C: 64.3%
Second compound 100 µM, first compound 3.16 µM
  viability, T/C: 61.2%
Second compound 100 µM, first compound 10 µM
  viability, T/C: 57.1%
